≈ marks a conversion by molar mass, not a printed value. Where a SMILES comes first, the peptide text is derived from it. Where no end group is shown, it is not given here.
Assays:
[1] = DPPH radical scavenging assay; conditions: individual isolated peptides
Method: The scavenging activity of crude hydrolysate and the protein hydrolysate composition of Fraction 7 against DPPH is determined by first dissolving samples (crude hydrolysate and the protein hydrolysate composition of Fraction 7 of Example 1) in 0.1 M sodium phosphate buffer, pH 7.0 containing 1% (w/v) Triton X-100. DPPH is dissolved in methanol to a final concentration of 100 μM, and mixed with the samples in the 96-well plate to a final assay concentration of 1 mg/mL. The samples are then incubated at room temperature in the dark for 30 min, and the absorbance read at 517 nm.
The procedure set forth about for Examples 10 & 11 is repeated using samples containing one of the isolated peptides 1-4 of Fraction 7 of Example 1.

[2] = Hydroxyl radical scavenging activity (HRSA) assay; conditions: individual isolated peptides
Method: The hydroxyl radical scavenging activity of crude hydrolysate and the protein hydrolysate composition of Fraction 7 is determined by dissolving samples (crude hydrolysate and the protein hydrolysate composition of Fraction 7 of Example 1) and 1,10-phenanthroline in 0.1 M sodium phosphate buffer (pH 7.4). FeSO4 (3 mM) and 0.01% hydrogen peroxide are separately dissolved in distilled water. An aliquot (50 μL) of samples (final assay concentration of 0.5 mg/mL) or buffer (control) is first added to a clear, flat bottom 96-well plate followed by additions of 50 μL of 1,10-phenanthroline and 50 μL of FeSO4. To initiate reaction in the wells, 50 μL of hydrogen peroxide (H2O2) solution is added to the mixture, which is then covered and incubated at 37° C. for 1 h with shaking. Absorbance is measured at 536 nm every 10 min for a period of 1 h.
The procedure set forth above for Examples 12 & 13 is repeated using samples containing one of the isolated peptides 1-4 of Fraction 7 of Example 1.

[3] = molecular target: ACE (Homo sapiens, UniProt P12821); test: ACE inhibition assay (FAPGG substrate); assay type: biochemical; conditions: individual isolated peptides
Method: The ability of sample to inhibit in vitro activity of ACE is determined by mixing 1 mL of FAPGG (0.5 mM, dissolved in buffer [50 mM Tris-HCl buffer containing 0.3 M NaCl, pH 7.5]) with 20 μL ACE (1 U/mL, final activity of 20 mU) and 200 μL sample (crude hydrolysate and the protein hydrolysate composition of Fraction 7 of Example 1, each dissolved in buffer to 1 mg/mL). The rate of decrease in absorbance at 345 nm is recorded for 2 min at room temperature. The results of the assay are set forth in Table 3 below, expressed as percent inhibition.
The procedure set forth above for Examples 16 & 17 is repeated using samples containing one of the isolated peptides 1-4 of Fraction 7 of Example 1.

[4] = molecular target: T1, human recombinant renin (Homo sapiens, UniProt P00797); test: Renin inhibition assay (Renin Inhibitor Screening Assay Kit); assay type: biochemical; conditions: individual isolated peptides, 1 mg/mL; read-out: % Inhibition ± SD of renin activity
T1 construct: purchased
T1 sequence (P00797 67-406): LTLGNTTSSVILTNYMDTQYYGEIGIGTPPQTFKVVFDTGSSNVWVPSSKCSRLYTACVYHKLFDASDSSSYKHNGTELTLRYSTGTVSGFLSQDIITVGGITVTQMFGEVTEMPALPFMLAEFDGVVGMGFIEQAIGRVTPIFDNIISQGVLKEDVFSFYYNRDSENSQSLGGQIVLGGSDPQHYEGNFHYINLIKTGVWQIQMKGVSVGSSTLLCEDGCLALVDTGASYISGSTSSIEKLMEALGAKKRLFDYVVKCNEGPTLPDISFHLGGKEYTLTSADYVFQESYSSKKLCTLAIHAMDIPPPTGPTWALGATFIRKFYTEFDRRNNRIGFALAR
Method: In vitro inhibitory activity of human recombinant renin is conducted using a Renin Inhibitor Screening Assay Kit. Samples (crude hydrolysate and the protein hydrolysate composition of Fraction 7 of Example 1) are diluted in Tris-HCl buffer (50 mM, pH 8.0, containing 100 mM NaCl) to a final concentration 0.5 mg/mL, and pre-warmed to 37° C. The reaction is initiated by adding renin (10 μL), shaking for 10 s to mix, and incubating at 37° C. for 15 min. Fluorescence intensity (FI) is then recorded at an excitation wavelength of 340 nm and an emission wavelength of 490 nm using a fluorometric microplate reader. The results of the assay are set forth in Table 3 below, expressed as percent inhibition. The procedure set forth above for Examples 18 & 19 is repeated at 1 mg/mL concentrations using samples containing one of the isolated peptides 1-4 of Fraction 7 of Example 1.

ACE, sequence (P12821 30-1306, species assumed): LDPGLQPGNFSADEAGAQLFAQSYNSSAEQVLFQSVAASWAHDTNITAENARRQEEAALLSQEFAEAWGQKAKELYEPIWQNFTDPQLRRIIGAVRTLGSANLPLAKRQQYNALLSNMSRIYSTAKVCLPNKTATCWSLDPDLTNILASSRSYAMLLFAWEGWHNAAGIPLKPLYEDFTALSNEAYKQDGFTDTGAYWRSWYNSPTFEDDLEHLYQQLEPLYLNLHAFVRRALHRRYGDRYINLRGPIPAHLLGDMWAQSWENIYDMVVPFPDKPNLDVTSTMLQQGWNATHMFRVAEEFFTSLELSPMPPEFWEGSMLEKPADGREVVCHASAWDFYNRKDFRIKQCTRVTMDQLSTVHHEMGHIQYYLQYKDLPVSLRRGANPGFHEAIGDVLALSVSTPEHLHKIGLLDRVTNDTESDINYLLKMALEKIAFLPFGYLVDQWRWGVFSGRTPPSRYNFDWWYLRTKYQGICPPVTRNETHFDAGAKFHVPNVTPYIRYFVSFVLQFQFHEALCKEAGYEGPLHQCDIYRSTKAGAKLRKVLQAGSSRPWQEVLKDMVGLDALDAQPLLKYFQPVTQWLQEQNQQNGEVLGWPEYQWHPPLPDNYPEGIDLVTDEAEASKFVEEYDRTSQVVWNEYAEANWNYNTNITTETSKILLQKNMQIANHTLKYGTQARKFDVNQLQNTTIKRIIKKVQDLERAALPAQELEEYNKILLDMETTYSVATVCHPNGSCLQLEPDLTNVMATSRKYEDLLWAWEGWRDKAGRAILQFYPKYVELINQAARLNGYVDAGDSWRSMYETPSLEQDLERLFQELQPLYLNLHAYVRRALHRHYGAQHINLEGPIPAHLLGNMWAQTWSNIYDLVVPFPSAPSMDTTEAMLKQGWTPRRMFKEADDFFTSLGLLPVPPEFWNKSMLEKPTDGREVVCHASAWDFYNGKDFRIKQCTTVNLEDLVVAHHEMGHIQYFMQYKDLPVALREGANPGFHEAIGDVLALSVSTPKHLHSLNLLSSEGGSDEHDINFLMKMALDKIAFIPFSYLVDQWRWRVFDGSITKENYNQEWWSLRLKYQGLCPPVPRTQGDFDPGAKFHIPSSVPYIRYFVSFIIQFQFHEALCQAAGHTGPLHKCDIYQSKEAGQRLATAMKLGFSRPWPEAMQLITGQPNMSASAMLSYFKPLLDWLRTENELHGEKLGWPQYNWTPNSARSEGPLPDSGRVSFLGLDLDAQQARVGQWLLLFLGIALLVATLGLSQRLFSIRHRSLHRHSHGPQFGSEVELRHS

IC50 DPPH radical scavenging [1] | IC50 hydrogen (hydroxyl) radical scavenging [2] | IC50 [3] | inhibition at 1000 µg/mL [4] | Compound
4260 ± 30 µg/mL | 1840 ± 10 µg/mL | 557 µM | 107 ± 17.6% | TGSYTEGWS [Peptide 4, Thr-Gly-Ser-Tyr-Thr-Glu-Gly-Trp-Ser]
4690 ± 50 µg/mL | 2500 ± 30 µg/mL | 35.7 µM | -46.4 ± 1.56% | MVWGP [Peptide 3, Met-Val-Trp-Gly-Pro]
28340 ± 380 µg/mL | 1900 ± 80 µg/mL | 961 µM | -54.5 ± 1.48% | SGRDP [Peptide 2, Ser-Gly-Arg-Asp-Pro]

Compound | IC50 DPPH radical scavenging [1] | IC50 hydrogen (hydroxyl) radical scavenging [2] | IC50 [3] | inhibition at 1000 µg/mL [4]
CC(C)[C@H](NC(=O)[C@H](Cc1ccccc1)NC(=O)[C@@H](N)Cc1ccc(O)cc1)C(=O)N1CCC[C@H]1C(=O)O [Peptide 1, Tyr-Phe-Val-Pro] (H-YFVP-OH; N-terminus and C-terminus assumed) | 3850 ± 130 µg/mL (≈ 7.34 mM) | 1930 ± 20 µg/mL (≈ 3.68 mM) | 477 µM | -40.5 ± 6.23%

Reference: patent US11312754B2, “Sunflower seed protein-derived peptides” (ACCESS BUSINESS GROUP INTERNATIONAL LLC, priority 2019, dated 2022)
